From ChEMBL document CHEMBL5120976, “Application of Deuterated N,N-Dimethyltryptamine in the Potential Treatment of Psychiatric and Neurological Disorders” (ACS Med Chem Lett, 2022)

Experiments:
Format in all cases: ADME, cell-based, Hepatocyte
[1] = Intrinsic clearance in human hepatocytes assessed per 10^6 cells; settings: read-out: CLH
[2] = Intrinsic clearance in human hepatocytes assessed per 10^6 cells relative to SPL026
[3] = Half life in human hepatocytes

## O=C(O)/C=C/C(=O)O.[2H]C([2H])([2H])N(C([2H])([2H])[2H])C([2H])([2H])Cc1c[nH]c2ccccc12
[1]
  hepatocyte CLint: 9.3 µL/min/1e6 cells
[2]
  fold change (FC): 2.1
[3]
  half-life: 3.45 h

## O=C(O)/C=C/C(=O)O.[2H]C([2H])([2H])N(CCc1c[nH]c2ccccc12)C([2H])([2H])[2H]
[2]
  fold change (FC): 1.1
